Assay results reported in patent USRE40050E1, “Method for cleaning and/or disinfecting food processing equipment” (priority 1999, dated 2008).

Assays:
[1] = root beer, buffered pH about 11, integrated absorbance 440 to 700 nm vs control without CIP composition; ppm of active as per example
Description: For each of the five (5) experiments below, two quartz UV cells having a path length of 5.0 cm were each charged with 5.95 mL of a 0.1 molar sodium phosphate solution (to establish a buffered pH of about 11). The first cell was further charged with 0.6 mL of neat (conventional) root beer, as made commercially available. The second cell was further charged with 0.6 mL deionized water. Using the contents of the second cell as the blank, the absorbance of the resulting root beer solution was determined over the range of 440 to 700 nm, using a Hewlett-Packard 8452 UV/vis spectrophotometer. The absorbance over this wavelength range was integrated, and the percent (%) reduction in color of root beer was based on a comparison to the integrated absorbance of the control to which no CIP composition has been added.

Bacillus cerus = assay: Suspension test, percent microbes killed by CIP composition; type: cell-based; conditions: suspension 8.5 log bacteria/mL, 50 ppm CaCO3
Description: (§1) American Type Culture Collection cultures were transferred daily and maintained on agar slants containing the appropriate growth medium^1. A loopful of the culture was transferred into 10 ml of Butterfield's phosphate buffer pH 7.2 (NutraMax Products, Inc.) and agitated to obtain a homogeneous turbid suspension. The actual concentration of microbes in suspension was estimated by its serial dilution in Butterfield's phosphate buffer and subsequent transfer of 0.1 ml of the dilution series into a Petri plate containing the appropriate agar growth medium. The inoculated Petri plates were incubated for 48-72 hours (at about 37° C.) and the resulting colonies counted with a Quebec colony counter. The number of colonies on the Petri plates multiplied by the serial dilution factor is equal to the number of microbes in 0.1 ml of inoculum.
(§2) Suspension test: 1 ml of each microbial suspension was mixed with 9 ml of each CIP composition containing 50 ppm CaCO3 at 10/9 of the recommended use concentration (RUC) so that final concentration was exact RUC. After contact times described above, 1 ml of the mixture was put to 9 ml of neutralizer^2 from which 0.1 ml of sample was plated onto the appropriate agar and incubated at 28° C. for 48-72 hours before counting. The number of colonies present on the Petri plates multiplied by the serial dilution factor is equal to the number of microbes in 0.1 ml that survived in the sanitizer solution.
(§3) The per cent microbes killed by CIP composition is calculated by using the following equation: […]
(§4) One (1) mL of suspension and 9.0 mL of CIP composition were combined, resulting in the above data. The pH of the chlorine dioxide CIP composition was 5.8, the mixed halogen is sold by DiverseyLever under the name of Divosan MH and the peroxyacetic acid was an aqueous solution having about 65% water.

Byssochlamys nivea = assay: as above; type: cell-based; conditions: suspension 8.1 log bacteria/mL, 50 ppm CaCO3
Description: as §1, §2, §3, §4

Candida Albicans = assay: as above; type: cell-based; conditions: suspension 8.0 log bacteria/mL, 50 ppm CaCO3
Description: as §1, §2, §3, §4

Lactobacillus brevis = assay: as above; type: cell-based; conditions: suspension 8.2 log bacteria/mL, 50 ppm CaCO3
Description: as §1, §2, §3, §4

Rhizopus stolonifer = assay: as above; type: cell-based; conditions: suspension 7.5 log bacteria/mL, 50 ppm CaCO3
Description: as §1, §2, §3, §4

Zygosaccharomyces bailii = assay: as above; type: cell-based; conditions: suspension 8.5 log bacteria/mL, 50 ppm CaCO3
Description: as §1, §2, §3, §4

Row | Compound | % Reduction of Color [1] [%] | percent bacteria killed, Bacillus cerus (Bacillus cerus; contact 2 minutes) [%] | percent bacteria killed, Byssochlamys nivea (Byssochlamys nivea; contact 30 seconds) | percent bacteria killed, Byssochlamys nivea (Byssochlamys nivea; contact 2 minutes) | percent bacteria killed, Candida Albicans (Candida Albicans; contact 2 minutes) | percent bacteria killed, Lactobacillus brevis (Lactobacillus brevis; contact 2 minutes) [%] | percent bacteria killed, Rhizopus stolonifer (Rhizopus stolonifer; contact 30 seconds) | percent bacteria killed, Rhizopus stolonifer (Rhizopus stolonifer; contact 2 minutes) [%] | percent bacteria killed, Zygosaccharomyces bailii (Zygosaccharomyces bailii; contact 2 minutes) [%] | percent bacteria killed, Bacillus cerus (Bacillus cerus; contact 30 seconds) [%] | percent bacteria killed, Candida Albicans (Candida Albicans; contact 30 seconds) | percent bacteria killed, Lactobacillus brevis (Lactobacillus brevis; contact 30 seconds) [%] | percent bacteria killed, Zygosaccharomyces bailii (Zygosaccharomyces bailii; contact 30 seconds)
1 | [O][Cl+][O-] [Example 3, chlorine dioxide] | 56.09 |  |  |  |  |  |  |  |  |  |  |  | 
2 | [Na+].[O-]Cl [Example 4, sodium hypochlorite] | 36.49 |  |  |  |  |  |  |  |  |  |  |  | 
3 | CC(=O)OO [Example 6, peroxyacetic acid] | 25.76 |  |  |  |  |  |  |  |  |  |  |  | 
4 | [O][Cl+][O-] [Example 7, chlorine dioxide] |  | ~99.9999 | About 99.99% | ~99.9999% | About 99.9999% | ~99.9999 | About 99.99% | ~99.9999 | ~99.9999 |  |  |  | 
5 | CC(=O)OO [Example 9, Peroxyacetic acid] |  | ~99.9999 | About 99.9% | About 99.99% | About 99.9999% | ~99.9999 | <99% | <99 | ~99.9999 | ~99.99 | About 99.99% | ~99.9999 | About 99.99%
